Here are results for seven compounds from patent US20080095737A1, “NON-TOXIC COATING COMPOSITION, METHODS OF USE THEREOF AND ARTICLES PROTECTED FROM ATTACHMENT OF BIOFOULING ORGANISMS” (Symrise GmbH & Co. KG, priority 2000, published 2008).

Values after ≈ are worked out from the molar mass of the structure shown. Values joined by “and” are separate entries in the source; they are usually repeats but may differ in a detail not shown here. Identical values can stand only once. Like-named read-outs stand apart in the source and are kept apart here.

For series [1], the system named is other bacterial strains associated with Perna sp. Briefly: Agar diffusion assay, marine bacteria associated with Perna sp. Particulars: procedure as Example 2.
Series [2] has as its system fouling phytoplanktons. The series is described as follows: Attachment of fouling phytoplanktons on painted submerged cement structures (seawater raceway). The arrangement: key: +++++: highest amount of fouling attachments; −: no appreciable fouling attachments. The following applies: 5% by weight in paint on cement structure, 60 days in seawater raceway. The protocol:
A raceway measuring 100 feet long, 15 feet wide and 3 feet deep was constructed near the sea and lined with a plastic liner. Seawater was pumped directly from the sea and the Growth of naturally occurring plankton was induced by fertilization of the seawater. The total volume of the seawater was approximately 150 cubic meters. The water was circulated and aerated using a paddlewheel. Samples of the seawater were analyzed after 30 days and found to contain the following species of diatoms: Grammatophoria ocean ica, Nitzschia sp., A,inphora sp., Amphora bigilba, Thalassiothrix sp., Stauroneis sp., Licniophora sp., and Navicula sp. The seawater also contained the dinoflagellate, Peridhan sp., and the blue Green algae, Ocillatoria sp. and Rivularia sp.
A conventional paint formulation that was free of any tributyl tin compounds was used as a control. Paint formulations embodying the present invention were prepared by incorporating (−)-menthol and (−)-(trans)-p-menthan-3,8-diol at a dose concentration of 5 percent (5%) by weight of each compound into the same paint vehicle used for the control formulation, and these two formulations were painted on separate surfaces of cement structures placed in the raceway. The controls consisted of unpainted cement surface and surface painted with the control formulation. […]

Series [3] has as its system Vibrio sp. (V, & V,). Briefly: Agar diffusion assay, marine bacteria associated with Perna sp. It is filed as cell-based. Particulars: procedure as Example 2.
Series [4] has as its system Dunaliella tertiolecta. The series is described as follows: In vitro cell growth inhibition assay, marine unicellular algae. The format is cell-based. The following applies: 0.00001-1.0 mg/ml, cell counts at 24-hour intervals. On the procedure:
(§1) The in vitro cell growth inhibition assay used in this test is described in […], et al., J. Chem. Ecol., supra. Dunaliella tertiolecta is a marine micro algae cultured in the laboratory. Each test algae was inoculated from stock culture into flasks containing growth medium. (-)-menthol was added to the flask at various concentrations and the growth was monitored on each flask using a haemocytometer at 24-hour intervals up to the death phase of the culture.

The subject of series [5] is Nitzchia sp. Briefly: In vitro cell growth inhibition assay, Nitzchia sp. It is filed as cell-based. Particulars: 0.00001-1.0 mg/ml, compared to the control. On the procedure: as §1, with “culture. The test procedure employed was substantially the same as described in Example 4, except that Nitzchia sp. was substituted for D. tertiolecta.” for “culture.”
Series [6] deals with cyprid larvae of the barnacle, Balanus amphitrite Darwin. The series is described as follows: Barnacle settlement inhibition assay. It is filed as in vivo. Particulars: for EC50: Amphibalanus amphitrite, read-out: EC50 (concentration which inhibited the settlement of 50% of the cyprid stage larvae); for efficacy as antifouling agents: in words. The text has this: Mary's College in Tuticorin, India. The barnacles were crushed and the nauplius stage larvae were collected for culture to the cyprid stage following the method of Rittschof et al., J. Exp. Mar. Biol. Ecol., 82:131146 (1984). The cyprid is the stage at which the barnacle larva is competent to attach to surfaces. Upon attachment to a surface, the larva then undergoes metamorphosis into a barnacle. Barnacle settlement assays were undertaken using the method described previously by Rittschof et al., J. Chem. […] Briefly, Falcon 50×9 mm plastic petri dishes were filled with 5 ml of filtered seawater at salinity of 33-35 parts per thousand (ppt) and into which 3-day old cyprid stage larvae were added. The test compounds were introduced at various concentrations into the dishes containing seawater. The test compounds included (-)menthol and (-)[…]-3,8-diol. Controls were represented by those dishes in which no test compound were added. After incubation at 28° C. for 9 hours, the dishes were examined under a dissecting microscope to determine if there was any mortality. […] Settlement data were expressed as the percentage of the larvae attached to the bottom of the dish. The same settlement assay was used to determine the effective concentration of a number of different compounds of formula I, above. The effective concentration (EC50) is that concentration which inhibited the settlement of fifty percent (50%) of the cyprid stage of the barnacle larvae present in a test sample.

Series [7] concerns other bacterial strains associated with B. amphitrite. Briefly: Agar diffusion assay, marine bacteria associated with B. amphitrite. It is filed as cell-based. The following applies: 0.004 mg/ml loaded on 6.5 mm disks.
For series [8], the system named is Flavobacterium sp. (F). The series is described as above. The following applies: 0.004 mg/ml loaded on 6.5 mm disks. The format is cell-based.
Series [9] relates to Aeromonas sp. (Ael). Described as above. It is filed as cell-based. The following applies: 0.004 mg/ml loaded on 6.5 mm disks.
The test system of series [10] is nauplii of the barnacle, Balauus annphitrite Darwin. Briefly: Mortality of barnacle nauplii at the effective concentrations. Particulars: prolonged exposure at the compound's EC50 concentration.
The test system of series [11] is barnacle, Balanus amphitrite communis. Briefly: Painted iron panels submerged in the sea, barnacle attachment. The following applies: cuprous oxide-containing marine paint on iron panels, submerged 78 weeks; control paint = 100. The protocol: A floating platform was constructed using layers of bamboo and styrofoam floats. The platform was designed with holders to accommodate test panels measuring 4 inches×12 inches×0.25 inches.
A first experimental paint was prepared, containing a biocidally effective amount of cuprous oxide and no other biocide which was used as the control. To this composition was added a combination of 0.5%, by weight of (−)-trans-pmenthan-3,8-diol and 0.50 of (−)-menthol (Composition A). A second paint composition was prepared from the same marine paint vehicle containing cuprous oxide, to which was added 2% by weight of (−)-menthol (Composition B). A third formulation was made from the same cuprous oxide-containing marine paint vehicle, to which was added 2% by weight of (−)-trans-p-menthan-3,8-diol (Composition C).
Solid iron panels having the above-mentioned dimensions were painted with the paint formulations thus prepared, placed in the holders in the floating platform and submerged continuously near the center of Bitac Cove in San Dionisio Bay (Philippines) for a period of 78 weeks. The panels were examined for a few minutes every three months and immediately resubmerged after photography. After 78 weeks, the panels were removed and inspected. The numbers of barnacles attached to the panels were counted. […]

For series [12], the system named is barnacle, Balanus amphitrite Darwin. Particulars: cited from earlier work.
[13] abbreviates: settlement assay, cyprid larvae.

For `CC1CCC(C(C)C)C(O)C1` (single isomer, unassigned; (-)) [(−)-menthol], the “sensitivity of bacterial strains” value in series [1] and in series [7] was “moderately sensitive” throughout. In [2], the “DEGREE OF BIOFOULING” value is “−”. Moreover, the “zone of inhibition, radius” value is on record as “greater than 8.5 mm” in series [3], “greater than 10 mm” in [8] and “greater than 10 mm” in series [9]. Also, the inhibition of growth result in series [4] is on record as “effective in inhibiting the growth of this micro algae in a dose dependent manner”. Further, in [5], the “inhibition of growth rate” value is “effective at all of the concentrations tested in inhibiting the growth rate”. The EC50 in series [6] is 4 µg/mL (≈ 25.6 µM). The “settlement (percentage of the larvae attached to the bottom of the dish)” value in series [6] (each of five concentrations tested (concentrations not given), in order, last = highest, 9 hours at 28° C., control 59% (diol) / 58% (menthol)) was 39% and 34% and 26% and 23% and 21%. The “mortality of barnacle nauplii” value in [10] is listed as “did not show any mortality”. The “% Settlement” value in [11] is 16.1%.
Regarding `C=C(C)C1CCC(C)CC1O` (single isomer, unassigned; (-)) [(−)-isopulegol, 5-methyl-2-(1-methylethenyl)cyclohexanol], the EC50 in series [6] (setting [13]) was 0.088 µg/mL (≈ 0.57 µM). Also, in series [6] (settlement assay), the “efficacy as antifouling agents” value is listed as “superior efficacy”.
As to `CC1CCC(C(C)(C)O)C(O)C1` (single isomer, unassigned; (-)) [(−)-trans-p-menthan-3,8-diol], in series [2], the “DEGREE OF BIOFOULING” value is on record as “−”. In addition, the EC50 in [6] worked out at 1 µg/mL (≈ 5.8 µM). Besides, the “mortality of barnacle nauplii” value in series [10] is “did not show any mortality”. Besides, the “% Settlement” value in series [11] was 27.1%.
Turning to `CCC[CH2][Sn]([Cl])([CH2]CCC)[CH2]CCC` [TBT chloride], the “acute toxicity, estimated dose” value in series [12] is listed as ~3.4 μg (microgram) per liter; in [12] (same value restated), about 0.0000034 grams/liter.
With `CC1CCC(C(C)C)C(Cl)C1` (single isomer, unassigned; (-)) [(−)-menthyl chloride], the EC50 in series [6] was 0.1 µg/mL. In addition, the “mortality of barnacle nauplii” value in series [10] is listed as “did not show any mortality”.
Turning to `CC1CCC(C(C)C)C(OCC(O)CO)C1` (centres unmarked) [menthoxypropanediol, 3-[[5-methyl-2-(1-methylethyl)cyclohexyl]oxy]-1,2-propanediol], the EC50 in [6] (setting [13]) was found to be 0.002 µg/mL (≈ 0.00868 µM). Besides, the “efficacy as antifouling agents” value in series [6] (settlement assay) is on record as “superior efficacy”.
For `CC1CCC(C(C)C)C(=O)C1` (single isomer, unassigned; (-)) [(−)-menthone], in [6], the EC50 was found to be 1 µg/mL (≈ 6.48 µM). In series [10], the “mortality of barnacle nauplii” value is reported as “did not show any mortality”.
